# Measurements: patent US9675627B2, “Dosing regimens for treating and/or preventing cerebral amyloidoses” (Amicus Therapeutics, Inc., priority 2014, dated 2017)
# What was measured:
# Aβ = Aβ immunohistochemistry (mAb 6E10); type: in vivo, Dutch APP^E693Q transgenic mice; conditions: 100 mg/kg, 3 months
# Experimental: The generation and characterization of Dutch APPE693Q mice transgenic mice is described in Gandy, S., et al. Days to criterion as an indicator of toxicity associated with human Alzheimer amyloid-beta oligomers. Annals of neurology 68, 220-230 (2010). 3-month-old male Dutch APP^E693Q mice transgenic mice were orally gavaged 5 days/week with either vehicle (water) (n=15) or 3, 10, 30 or 100 mg/kg AdDNJ for 3 months (n=13). All animal studies were approved and conducted in accordance with the Institutional Animal Care and Usage Committee. Mice were kept in a pathogen-free environment, on a 12-hour light/dark cycle and given ad libitum access to food and water. At 6 month of age treatment groups, and a 3-month-old untreated baseline group (n=15), were cognitively assessed in the NOR, EPM and FC tests. 48 hours following the final dose mice were perfused with ice-cold 1×PBS. The brain was removed and dissected into two hemispheres. One half was snap-frozen on dry ice and stored at −80° C. for biochemistry; the other half was post-fixed in 4% paraformaldehyde then sagittally sectioned on a vibratome into 30 μm sections and stored at 4° C. in storage buffer until histological analyses.
# Aβ was assessed via free-floating immunohistochemistry using mAb 6E10 (1:1000, Covance) as previously described20. GAβ was assessed via free-floating immunohistochemistry using mouse anti-GAβ, clone 4396C (1:100), a gift from Dr. Katsuhiko Yanagisawa as previously described19. Images were captured on an Olympus BX61 upright microscope with an attached Olympus DP71 camera. Integrated density of GAβ staining was measured using Image J (National Institute of Health, Bethesda, Md.).
# β-hex = tested on: β-hex
# Experimental: AdDNJ selectivity was assessed by measuring its effect on the enzymatic activity of hexosaminadase (Total Hex, Hex A/S and Hex B), and 3 other lysosomal hydrolases: alpha-galactosidase, beta-galactosidase and glucocerebrosidase. For enzymatic assays, wild-type fibroblast (CRL2076) pellets (˜2.5e6 cells/pellet) were lysed with 200 μl of pH 5 lysis buffer (Phosphate/citrate, 0.25% tauorocholate, 0.1% TX100). Fibroblast lysates were diluted 1:200 in pH 5 reaction buffer (lysis buffer without TX100) containing 2 mM of the appropriate 4-methylumbelliferyl (4-MU) substrate, incubated for 1 h at 37° C. and stopped with 0.5 M sodium carbonate. Released 4MU was measured using a Perkin Elmer Victor 5× fluorescence plate reader (ex355/em460). Measurement of Total Hex activity was carried out using 4-methylumbelliferyl beta-N-acetylglucosaminide (MUG); for Hex A/S activity 4MU-beta-N-acetylglucosamine-6-sulfate (MUGS); Hex B activity was calculated as the difference between Total Hex and Hex A/S activity; for alpha-galactosidase activity […]; for beta-galactosidase activity 4-MU beta-D-galactoside; for glucocerebrosidase activity 4MU beta-D-glucopyranoside. As positive controls for enzymatic inhibition 100 μM of the following compounds were used: for alpha-galactosidase, 1-deoxygalactonojirimycin; for beta-galactosidase, N-Butyl-1-deoxygalactonojirimycin; for glucocerebrosidase, isofagamine. For beta-hexosaminadase enhancement assays, fibroblasts were exposed to 0, 95, 390 and 780 nM of AdDNJ for 5 days followed by beta-hexosamindase activity measurement. Enzymatic activity measurements were done in duplicate.
# 5-week-old C57BL/J6 mice (n=5 mice/group, Taconic Farms, Germantown, N.Y.) were administered vehicle (water) or AdDNJ (30, 100 or 300 mg/kg) via oral gavage every day for 14 days. On day 15 mice were euthanized and brain/plasma collected for analysis. For single dose PK studies, 5-week-old C57BL/J6 mice (n=5 mice/group, Taconic Farms, Germantown, N.Y.) received a single 100 mg/kg dose (oral gavage) of AdDNJ and groups euthanized at 0.5, 1, 2, 4, 8, 16, 24 and 48 hours post dose for brain and plasma analysis. Whole brain tissue (10-15 mg) was homogenized in 1 mL of pH 5 lysis buffer for measuring beta-hexosaminidase activity as described above. AdDNJ levels were measured in plasma and brain samples using LC-MS/MS.
# β-galactosidase (β-Gal) = biological target: T1, β-galactosidase (β-Gal) (Homo sapiens, UniProt P16278); experiment: Selectivity: beta-galactosidase activity in fibroblast lysate; type: biochemical; conditions: 10 μM, the highest concentration tested
# T1 construct: wild-type fibroblast (CRL2076) pellets (˜2.5e6 cells/pellet) were lysed; host or cells: wild-type fibroblasts CRL2076, lysate
# T1 sequence (P16278 29-677): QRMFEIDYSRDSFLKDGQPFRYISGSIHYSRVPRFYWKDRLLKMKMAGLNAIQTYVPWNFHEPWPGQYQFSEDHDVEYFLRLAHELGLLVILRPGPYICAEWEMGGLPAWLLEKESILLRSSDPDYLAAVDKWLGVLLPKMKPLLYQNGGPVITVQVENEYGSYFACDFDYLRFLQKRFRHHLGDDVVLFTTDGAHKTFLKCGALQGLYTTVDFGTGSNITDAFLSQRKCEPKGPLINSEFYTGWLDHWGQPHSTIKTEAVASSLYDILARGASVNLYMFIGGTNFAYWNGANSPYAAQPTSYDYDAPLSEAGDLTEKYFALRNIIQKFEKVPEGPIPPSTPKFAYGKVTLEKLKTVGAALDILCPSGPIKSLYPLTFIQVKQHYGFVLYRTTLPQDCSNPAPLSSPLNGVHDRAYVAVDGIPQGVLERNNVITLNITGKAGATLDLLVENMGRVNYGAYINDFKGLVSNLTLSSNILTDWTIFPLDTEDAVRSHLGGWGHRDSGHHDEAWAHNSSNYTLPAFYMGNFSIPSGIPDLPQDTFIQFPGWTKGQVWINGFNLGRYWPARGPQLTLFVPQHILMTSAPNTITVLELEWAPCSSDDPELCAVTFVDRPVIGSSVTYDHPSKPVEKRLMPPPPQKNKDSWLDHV
# From the text: Enzymatic activity measurements were done in duplicate.
# [1] = daily gavage 14 days at 30, 100 and 300 mg/kg
smiles,measurement,setting,value
"CC(=O)NC1CNC(CO)[C@@H](O)C1O (some centres unmarked) [AdDNJ, 2-acetamido-1,2-dideoxynojirimycin]","Aβ accumulation, CA1 region of the hippocampus",Aβ,no differences were observed
same,"Aβ accumulation, subiculum",Aβ,qualitative region-specific reduction of Aβ accumulation
same,"Aβ accumulation, visual cortex",Aβ,no differences were observed
same,time of maximum increase in β-hex levels,"β-hex; daily gavage 30, 100, 300 mg/kg",~5 days
same,GM2 levels in whole brain extracts,β-hex; [1],without increasing GM2 levels
same,brain β-hex levels,β-hex; [1],dose-dependent increase
same,half-life of elevated β-hex levels in the brain,β-hex; data not shown,~48 h
same,inhibition of β-galactosidase (β-Gal),β-galactosidase (β-Gal),did not inhibit
